According to publication PMC11724075, “Small-molecule-induced ERBB4 activation to treat heart failure” (Nature Communications, 2025):
Where “and” joins values, the source holds several entries; their conditions need not be identical. Equal entries are not always repeated.

Columns and labels:
HCFs = experiment: In vitro collagen expression: COL3A1 mRNA in HCFs stimulated with TGF-β1; type: cell-based, human; conditions: for COL3A1 mRNA expression (FC): TGF-β1 10 ng/mL, 24 h, single replicates
Description: HCFs were seeded at a density of 1.5 ×10^5 cells/well in doxycycline-free medium in 12-well plates (Greiner Bio-One, 665180) and incubated overnight. […] Compounds were pre-incubated for 10 min before addition of TGF-β1.
RNA was extracted using Nucleospin RNA XS (Macherey-Nagel, 740902.50) according to the manufacturer’s instructions. For cDNA synthesis, total RNA was added to a mixture containing buffer with random hexamers and reverse transcriptase enzyme (TaqMan reverse transcription reagents, Applied biosystems, N8080234) after which samples were incubated for 10 min at 25 °C, 30 min at 48 °C, and 5 min at 95 °C. RT-qPCR was performed on QuantStudio 3 Real-time PCR system (Applied Biosystems) using Taqman Universal PCR Master Mix (Applied Biosystems, 4304437) and Taqman primers according to the manufacturer’s instructions. Settings were as follows: […] followed by 10 min at 95 °C, 40 cycles (45 cycles for ERBB4) of denaturation at 95 °C for 15 s, and 1 min at 60 °C. All reactions were run in duplicate, and all data were normalized against housekeeping genes glyceraldehyde-3-phosphate dehydrogenase (GAPDH), beta-actin (ACTB), or phosphoglycerate kinase 1 (PGK1). Expression levels were calculated using the comparative cycle method and expressed as fold change (FC) to appropriate controls. The following TaqMan primers were used (Thermo Fisher Scientific): GAPDH (Hs02758991_g1, Mm99999915_g1 and Rn01775763_g1), PGK1 (Hs99999906_m1), ID2 (Hs04187239_m1), BMPR1B (Hs01010965_m1), CACNA2D4 (Hs00297782_m1), DUSP2 (Hs00358879_m1), NR4A1 (Hs00374226_m1), SGK1 (Hs00178612_m1), COL1A1 (Mm00801666_g1), COL3A1 (Hs00943809_m1 and Mm00802305_g1), ERBB4 (Hs00955525_m1 and Rn00572447_m1), ACTB (Mm02619580_g1) and ANP (Mm01255747_g1).

[1] = system: Akt phosphorylation (pAkt/Akt); experiment: Western blot pAkt/Akt in iAMs; type: cell-based, rat; conditions: for pAkt/Akt, relative to vehicle of the same time point: iAMs, single replicates; for phosphorylation of Akt in iAMs (in words): NRG1 10 nM or EF-1 32 µM
Description: (§1) Hearts of the aforementioned transgenic mice were removed immediately after the animals had been killed. Cells and heart tissue were collected in RIPA lysis buffer (Thermo Fisher Scientific, 89900) supplemented with protease inhibitors (Merck, 11836153001) and phosphatase inhibitors (Merck, 4906845001) and the lysates were centrifuged at 14,000 × g for 10 min. The supernatants were collected, supplemented with sample buffer, and incubated at 95 °C for 5 min. Protein quantification was done with Pierce^TM BCA Protein Assay Kits (Thermo Fisher, 23227) according to the manufacturer’s instructions. Equal protein amounts of clarified lysates (20 µg) were subsequently separated by sodium dodecyl sulfate (SDS) polyacrylamide gel electrophoresis (165 V, 400 mA, 60 min) and transferred onto polyvinylidene fluoride membranes by electroblotting (100 V, 400 mA, 90 min). Next, the membranes were incubated for 1 h with Li-Cor blocking buffer (Li-Cor, 927-60001) at RT in Tris-buffered saline (TBS), supplemented with 0.1% Tween (BIO-RAD, 1706531). Next, primary antibodies were added (see below and Table 1a) in Li-Cor blocking buffer supplemented with 0.1% Tween, and the membranes were incubated overnight at 4 °C on a shaker. Following washing with TBS-0.1% Tween, the membranes were incubated for 1 h at RT with corresponding IRDye-conjugated secondary antibodies (See below and Table 1b) in Li-Cor blocking buffer supplemented with […] and 0.1% Tween. The membrane was visualized with the Odessey imaging system.

iAMs = experiment: H2O2-induced cell death assay in iAMs (Toxilight), also with LY294002; conditions: for total cell death of iAMs (percentage of total dead cells): 4 h; for total cell death of iAMs (percentage of total dead cells) / total cell death of iAMs: single replicates
Description: Subsequently, H2O2 (100 µM; Merck, H1009) was added and the cells were incubated for 4 h at 37 °C. All wells contained DMSO at a final concentration of 0.9%. […] After incubation at RT for 5 min, luminescence was measured using the Luminoskan Ascent.

[2] = system: ERK1/2 phosphorylation (pERK1/2/ERK1/2); experiment: Western blot pERK1/2/ERK1/2 in iAMs; type: cell-based, rat; conditions: for pErk/Erk, relative to vehicle of the same time point: iAMs, single replicates; for phosphorylation of ERK1/2 in iAMs (in words): NRG1 10 nM or EF-1 32 µM
Description: as §1

## O=C(NC1CC1)C(Sc1nc2ccccc2c(=O)n1C1CCCC1)c1ccccc1 (centres unmarked) [EF-1]
HCFs; EF-1 + SiERBB4, 1e-6 M
  COL3A1 mRNA expression (FC): 1
HCFs; EF-1 + SiERBB4, 4e-6 M
  COL3A1 mRNA expression (FC): 0.5373 and 0.7163 and 0.5917 and 0.6311 and 0.7899 and 0.8499
HCFs; EF-1 + SiERBB4, 8e-6 M
  COL3A1 mRNA expression (FC): 0.8243 and 0.8469 and 0.7111 and 0.7439 and 0.7398 and 0.6183
HCFs; EF-1 + SiERBB4, 1.6e-5 M
  COL3A1 mRNA expression (FC): 0.5202 and 0.6505 and 0.7517 and 0.6477 and 0.5129
HCFs; EF-1 + SiERBB4, 3.2e-5 M
  COL3A1 mRNA expression (FC): 0.7721 and 0.6715 and 0.5121 and 0.7108 and 0.5403 and 0.6885
HCFs; EF-1 + SiScr, 1e-6 M
  COL3A1 mRNA expression (FC): 0.9505 and 1.0731 and 0.9765
HCFs; EF-1 + SiScr, 4e-6 M
  COL3A1 mRNA expression (FC): 0.3565 and 0.5152 and 0.404
HCFs; EF-1 + SiScr, 8e-6 M
  COL3A1 mRNA expression (FC): 0.4855 and 0.3848 and 0.5526
HCFs; EF-1 + SiScr, 1.6e-5 M
  COL3A1 mRNA expression (FC): 0.2758 and 0.3929 and 0.4764
HCFs; EF-1 + SiScr, 3.2e-5 M
  COL3A1 mRNA expression (FC): 0.4172 and 0.4035 and 0.5599
HCFs; HCFs, dose-dependent, 4–32 µM
  decrease of TGF-β1-induced COL3A1 mRNA levels: up to 50%
[1]; EF-1
  time of peak Akt phosphorylation: 2 h
[1]; EF-1 32 µM, 0 minutes
  pAkt/Akt, relative to vehicle of the same time point: 0.748 and 0.7404 and 0.672 and 0.9718
[1]; EF-1 32 µM, 15 minutes
  pAkt/Akt, relative to vehicle of the same time point: 0.8783 and 0.9705 and 0.9844 and 0.887
[1]; EF-1 32 µM, 60 minutes
  pAkt/Akt, relative to vehicle of the same time point: 1.284 and 1.335 and 1.4576 and 1.506
[1]; EF-1 32 µM, 120 minutes
  pAkt/Akt, relative to vehicle of the same time point: 2.136 and 1.473 and 2.15 and 1.815
[1]; EF-1 32 µM, 240 minutes
  pAkt/Akt, relative to vehicle of the same time point: 2.021 and 1.657 and 2.184 and 2.136
[1]
  phosphorylation of Akt in iAMs (in words): time-dependent phosphorylation of Akt
iAMs; EF-1 + SiERBB4, 1e-6 M, H2O2 100 µM
  total cell death of iAMs (percentage of total dead cells): 68.0221 and 60.0225 and 62.2886
iAMs; EF-1 + SiERBB4, 4e-6 M, H2O2 100 µM
  total cell death of iAMs (percentage of total dead cells): 72.51 and 56.29 and 70.83
iAMs; EF-1 + SiERBB4, 8e-6 M, H2O2 100 µM
  total cell death of iAMs (percentage of total dead cells): 69.73 and 50.25 and 72.39
iAMs; EF-1 + SiERBB4, 1.6e-5 M, H2O2 100 µM
  total cell death of iAMs (percentage of total dead cells): 67.67 and 53.83 and 80.13
iAMs; EF-1 + SiERBB4, 3.2e-5 M, H2O2 100 µM
  total cell death of iAMs (percentage of total dead cells): 64.65 and 55.01 and 72.56
iAMs; EF-1 + SiScr, 1e-6 M, H2O2 100 µM
  total cell death of iAMs (percentage of total dead cells): 62.2886 and 68.0221 and 60.0225
iAMs; EF-1 + SiScr, 4e-6 M, H2O2 100 µM
  total cell death of iAMs (percentage of total dead cells): 34.38 and 49.85 and 69.84
iAMs; EF-1 + SiScr, 8e-6 M, H2O2 100 µM
  total cell death of iAMs (percentage of total dead cells): 29.53 and 51.53 and 63.09
iAMs; EF-1 + SiScr, 1.6e-5 M, H2O2 100 µM
  total cell death of iAMs (percentage of total dead cells): 23.16 and 29.77 and 55.38
iAMs; EF-1 + SiScr, 3.2e-5 M, H2O2 100 µM
  total cell death of iAMs (percentage of total dead cells): 15.16 and 25.21 and 30.15
iAMs; H2O2/EF-1 (32 µM) + LY294002 (20 µM, 10 min pretreatment)
  total cell death of iAMs: 37.778 and 30.0948 and 30.3358 and 33.2686
iAMs; H2O2/EF-1 (32 µM), without LY294002
  total cell death of iAMs: 27.2571 and 19.0561 and 18.1394 and 25.7513
iAMs; at its highest dose
  decrease of H2O2-induced cardiomyocyte cell death: more than 75%
[2]; EF-1
  time of peak levels of ERK1/2 phosphorylation: 15 min
[2]; EF-1 32 µM, 0 minutes
  pErk/Erk, relative to vehicle of the same time point: 1.078 and 1.057 and 1.137 and 0.8985
[2]; EF-1 32 µM, 15 minutes
  pErk/Erk, relative to vehicle of the same time point: 1.66 and 1.416 and 1.274 and 1.578
[2]; EF-1 32 µM, 60 minutes
  pErk/Erk, relative to vehicle of the same time point: 1.162 and 1.018 and 1.18 and 0.9894
[2]; EF-1 32 µM, 120 minutes
  pErk/Erk, relative to vehicle of the same time point: 0.9869 and 1.003 and 0.9414 and 0.8187
[2]; EF-1 32 µM, 240 minutes
  pErk/Erk, relative to vehicle of the same time point: 0.9968 and 1.428 and 1.0991 and 0.9249
[2]
  phosphorylation of ERK1/2 in iAMs (in words): transient phosphorylation of ERK1/2

## Cc1sc2nc(SC(C)C(=O)NCc3ccc4c(c3)OCO4)n(-c3ccccc3)c(=O)c2c1C (centres unmarked) [NA-1]
HCFs; 4–32 µM
  effect on TGF-β1-induced COL3A1 expression in HCFs (in words): did not affect COL3A1 expression
HCFs; NA-1, 1e-6 M
  COL3A1 mRNA expression (FC): 1
HCFs; NA-1, 4e-6 M
  COL3A1 mRNA expression (FC): 0.6694 and 0.8324 and 0.8909
HCFs; NA-1, 8e-6 M
  COL3A1 mRNA expression (FC): 0.9443 and 0.7317 and 0.6882
HCFs; NA-1, 1.6e-5 M
  COL3A1 mRNA expression (FC): 0.7688 and 0.6597 and 0.5112
HCFs; NA-1, 3.2e-5 M
  COL3A1 mRNA expression (FC): 0.7866 and 0.7983 and 0.6723
iAMs; H2O2 100 µM
  effect on cardiomyocyte survival (in words): did not have a significant effect on cardiomyocyte survival
iAMs; NA-1, 1e-6 M, H2O2 100 µM
  total cell death of iAMs (percentage of total dead cells): 60.0225 and 62.2886 and 68.0221
iAMs; NA-1, 4e-6 M, H2O2 100 µM
  total cell death of iAMs (percentage of total dead cells): 64.78 and 60.57 and 53.32 and 58.95
iAMs; NA-1, 8e-6 M, H2O2 100 µM
  total cell death of iAMs (percentage of total dead cells): 63.16 and 63.84 and 49.27 and 56.61
iAMs; NA-1, 1.6e-5 M, H2O2 100 µM
  total cell death of iAMs (percentage of total dead cells): 61.57 and 64.49 and 50.09 and 59.17
iAMs; NA-1, 3.2e-5 M, H2O2 100 µM
  total cell death of iAMs (percentage of total dead cells): 63.24 and 58.6 and 49.06 and 56.03

## neuregulin-1 [NRG1]
[1]
  phosphorylation of Akt in iAMs (in words): significant increase in phosphorylated Akt levels after already 15 minutes
[1]; NRG1 10 nM, 0 minutes
  pAkt/Akt, relative to vehicle of the same time point: 1.052 and 0.8332 and 0.8199
[1]; NRG1 10 nM, 15 minutes
  pAkt/Akt, relative to vehicle of the same time point: 5.096 and 6.809 and 6.931
[1]; NRG1 10 nM, 60 minutes
  pAkt/Akt, relative to vehicle of the same time point: 4.363 and 4.094 and 3.405
[1]; NRG1 10 nM, 120 minutes
  pAkt/Akt, relative to vehicle of the same time point: 2.7652 and 3.7648 and 2.637
[1]; NRG1 10 nM, 240 minutes
  pAkt/Akt, relative to vehicle of the same time point: 2.317 and 2.06
[2]
  phosphorylation of ERK1/2 in iAMs (in words): time-dependent phosphorylation of ERK1/2
[2]; NRG1 10 nM, 0 minutes
  pErk/Erk, relative to vehicle of the same time point: 0.7394 and 1.087 and 0.6444
[2]; NRG1 10 nM, 15 minutes
  pErk/Erk, relative to vehicle of the same time point: 2.343 and 1.9112 and 1.767
[2]; NRG1 10 nM, 60 minutes
  pErk/Erk, relative to vehicle of the same time point: 3.329 and 2.139 and 1.769
[2]; NRG1 10 nM, 120 minutes
  pErk/Erk, relative to vehicle of the same time point: 1.461 and 2.784 and 4.448
[2]; NRG1 10 nM, 240 minutes
  pErk/Erk, relative to vehicle of the same time point: 3.3773 and 3.181
